The text below walks through data of patent US20250154288A1, “CYTOTOXICITY TARGETING CHIMERAS FOR C-C CHEMOKINE RECEPTOR 2-EXPRESSING CELLS” (GLAXOSMITHKLINE INTELLECTUAL PROPERTY DEVELOPMENT LIMITED, priority 2022, published 2025).

Series [1] in a line: Blood drug concentration analysis (LC-MS/MS) in In Vivo Depletion Assay. Particulars: human CCR2 (hCCR2) knock-in, 057 background, mouse, whole blood, hCCR2 knock-in mice, IV 0.1 mpk compound + 10 mpk anti-cotinine antibody, 48 hours post-dose, read-out: Exposure of Compound of Formula (I) 48 hours post-dose. The protocol:
(§1) Human CCR2 (hCCR2) knock-in mice (057 background) were dosed intravenously with a PBS solution containing a compound of Formula (I) to measure depletion of CCR2 expressing cells in peripheral blood. Peripheral blood from IV dosed mice was also analyzed to determine PK properties of the ARM compounds of Formula (I).
(§2) Administration to Animal: Solution formulation of antibody and compound of Formula (I) was injected (bolus injection) to the restrained mouse in the right/left lateral tail vein. Animals were dosed with 0.1 milligram per kilogram (mpk) of the compound of Formula (I) and 10 mpk of the anti-cotinine antibody.
Collection of Blood for PK: Blood was collected at time points 0.25 hour, 2 hours, and […] following administration (50 μL/time point) through retro-orbital bleeding under mild isoflurane anesthesia.
(§3) Terminal bleeding at end of experiment (48 hr): Approximately 250 μL of blood in K2EDTA tube and approximately 250 μL of blood in SST (serum separation tube) was collected from each mouse through retro-orbital bleeding under deep isoflurane anesthesia. After bleeding, each mouse was sacrificed by cervical dislocation. The blood distribution at termination was determined as follows: • For PK: 50 μL of K2EDTA blood was transferred to another tube for PK • Flow cytometry: Remaining blood (˜200 μL) was used for flow cytometry analysis. • For serum collection: serum separator tubes (BD) were centrifuged at 4° C., 5000 rpm for 15 minutes. Approximately 100 μL serum was separated and stored at −80° C. for further usage. • Blood drug concentration: Samples collected at the various timepoints (0.25 hr, 2 hr, 24 and 48 hr) were analyzed to determine blood drug concentration.
Drug concentration in blood samples was determined by an LC-MS/MS-based bioanalytical method developed at Syngene. Samples were analyzed on Q-Trap, API-5500 LC-MS/MS system coupled with Exion UHPLC system from SCIEX, USA operated in multiple reaction monitoring mode employing electrospray ionization technique in positive polarity. Analyte and internal standard peaks were resolved on Synergi Polar, 75×2.0 mm, 4μ column using mobile phase 10 mM Ammonium acetate in Milli-Q water as phase A and 0.1% Formic acid in acetonitrile as Phase B. Gradient elution was performed with initial composition 95% Phase A at 0.0 min, holding it for 0.2 minutes, ramping to 5% by 1.0 minute, keeping the same for next 0.5 minutes and coming back to 95% by 1.6 minutes. The total run time was 2 minutes.
Working dilutions for calibration curve and quality control standards were prepared by serially diluting 20 mg/mL stock solution with DMSO. Spiked concentrations for calibration curve in the whole blood ranged from 1 ng/mL to 1000 ng/mL. The working solution of internal standard (Verapamil, 25 ng/mL) was prepared in acetonitrile. 10 μL of the study sample and calibration curve, quality control, and blank whole blood samples were aliquoted in 96 deep well plates for processing. 10 μL of Milli-Q water was added to all the samples and briefly vortexed to initiate complete hemolysis. 10 μL of 20 mM dithiothreitol (OTT) was added to all the samples and incubated for 30 minutes at 37° C. The addition of DTT enhanced the recovery of ARM compounds of Formula (I) from the biological matrix. 300 μL of working internal standard solution was added to all samples except total blank and wash samples, where 300 μL of acetonitrile was added. All the samples were vortex mixed for 5 minutes, followed by centrifugation at 4000 rpm for 10 minutes at 4° C. Supernatants were transferred to the loading plate and injected 3 μL to LC-MS/MS system for analysis. The results are shown below in Table 4 and are reported as compound exposure 48 hours post-dose

In series [2] the target is T1, CHOK1 cells engineered to overexpress human CCR2 (Homo sapiens, UniProt P41597).
T1 construct: expressed in transfected cells; host or cells: CHOK1
Kind of series: Antibody Dependent Cellular Cytotoxicity (ADCC) Reporter Assay. It counts as cell-based. The note with it: with anti-cotinine antibody (human IgG1 Fc, S239D/I332E); Jurkat FcγRIIIa NFAT-luciferase reporter cells; average if several runs; read-out: ADCC Reporter Assay pEC50 (converted). The protocol:
An antibody dependent cellular cytoxocity reporter assay was conducted using the following four assay components: (i) ARM compound of Formula (I) targeting CCR2 (concentrations ranging from 1 pM to 10 μM) (ii) anti-cotinine antibody having a heavy chain sequence of SEQ ID NO: 11 and a light chain sequence of SEQ ID NO: 12 (rabbit variable region with human IgG1 Fc domain containing a DE mutation (S239D/I332E)) (concentrations ranging from 0.01 μg/mL to 200 μg/mL); (iii) target cells: CHOK1 cells engineered to overexpress either human CCR2 (typically 1000-20,000 cells per well) and (iv) reporter cells: Jurkat cells engineered to express FcγRIIIa with the reporter gene luciferase under the control of the NFAT promoter (typically 3000-75,000 cells per well). Reagents were combined in a final volume of 20 μL in a 384-well tissue culture treated plate. All four assay components were incubated together for about 12-18 hours. Thereafter, BioGlo Detection reagent (Promega) was added to the wells to lyse the cells and provide a substrate for the luciferase reporter protein. Luminescence signal was measured on a microplate reader and signal:background was calculated by dividing the signal of a test well by the signal obtained when no heterobivalent compound of Formula (I) was added. EC50 calculations were done using Graphpad Prism Software, specifically a nonlinear regression curve fit (Y=Bottom+(Top−Bottom)/(1+10 ^((Log EC50−X)*HillSlope))).
ARMs compounds of Formula (I) of the invention were tested for ADCC activity in the above assay in or more experimental runs and the results are shown in Table 3 below. Potency of the compounds of Formula (I) of the invention is reported as a pEC50 value. The pEC50 value is the negative log of the EC50 value, wherein the EC50 value is the half maximal effective concentration measured in molar (M). For compounds tested in more than one experimental run, the pEC50 value is reported as an average.
(A reporter such as luciferase makes a cellular process visible.)

Series [3] relates to CCR2 expressing cells (CD11b+Ly6c+ Hi) in peripheral blood. The series is described as follows: In Vivo Depletion Assay (flow cytometry of peripheral blood). Set-up: species or system Human CCR2 (hCCR2) knock-in mice. Particulars: hCCR2 knock-in mice; IV 0.1 mpk compound + 10 mpk anti-cotinine antibody (mouse IgG2a Fc); peripheral blood at 48 hr. The protocol:
as §1
Stock solution preparation: Stock solutions of compounds of Formula (I) were prepared at 20 mg/mL and 100 mg/mL in DMSO for PK/PD and dose tolerability studies respectively. Stock solutions were stored at −20° C. until further usage.
Formulations preparation: On the day of experiment, the stock solution of the compound of Formula (I) was removed from storage at −20° C. and thawed at room temperature. Anti-cotinine antibody having a heavy chain sequence of SEQ ID NO: 13 and a light chain sequence of SEQ ID NO: 14 (rabbit variable region sequence with mouse IgG2a Fc domain), if required was removed from storage at −80° C. and thawed at room temperature. Antibody vials were immediately transferred into wet ice after thawing. Compounds of Formula (I) were further diluted in DMSO as per experimental requirements.
Formulation composition: The formulation composition was Saline: DMSO: PBS. Saline was added based on the quantity required and then stock solution of the compound of Formula (I) prepared in DMSO, followed by addition of antibody in PBS. Formulations were incubated at room temperature for 30 minutes before administration to the mouse. DMSO was used at 1 to 2% (v/v) in the final formulation.
as §2, §3
CCR2 depletion in peripheral blood was determined by flow cytometry. Briefly, peripheral blood was collected from all animals at the end of study termination and processed. Blood samples were lysed using 1×RBC Lysis buffer and the resulting cell pellet was washed twice in FACS buffer (HBSS containing 5% FBS). Cells were subjected to Fc blocking using mouse Fc block from Biolegend (Trustain, anti-mouse CD16/32, Cat: 101319) to block non-specific binding followed by surface staining for immune markers (CD45, CD3, CD11b, Ly6C, human CCR2). Surface staining was done for 30 minutes in ice and cells were washed twice to remove unbound antibodies. Cells were stained with 7AAD to determine viability and acquired on BD FACSVerse flow cytometer. Appropriate FMO controls and single-color controls were included in the experiment for gating and compensation respectively.
Percent depletion of CD11b+Ly6c+ Hi cells and CCR2 expression for the different treatment groups was determined. The results are shown below in Table 4 and are reported as percent (%) depletion of CCR2 expressing cells.
On the technique in general: A flow cytometer gives signals particle by particle.

For the compound `CO[C@@H]1COCC[C@@H]1N[C@@H]1CC[C@](CCCNC(=O)[C@H]2CC[C@H](NC(=O)CCCO[C@H]3CC[C@@H](OCCNC(=O)[C@H]4CC(=O)N(C)[C@@H]4c4cccnc4)CC3)CC2)(C(=O)N2CCc3ncc(C(F)(F)F)cc3C2)C1` [Example 5, (2S,3S)-N-(2-(((1S,4R)-4-(4-(((1S,4R)-4-((3-((1S,3R)-3-(((3S,4S)-3-Methoxytetrahydro-2H-pyran-4-yl)amino)-1-(3-(trifluoromethyl)-5,6,7,8-tetrahydro-1,6-naphthyridine-6-carbonyl)cyclopentyl)propyl)carbamoyl)cyclohexyl)amino)-4-oxobutoxy)cyclohexyl)oxy)ethyl)-1-methyl-5-oxo-2-(pyridin-3-yl)pyrrolidine-3-carboxamide], the concentration at 48 h in series [1] was 95.4 ng/mL. Moreover, the EC50 in series [2] is 158 pM. For the same compound, the “% Depletion of CCR2 expressing cells” value in series [3] is 98.41%.
For `CO[C@@H]1COCC[C@@H]1N[C@@H]1CC[C@@](C(=O)N2CCc3nc(CCCCNC(=O)[C@H]4CC[C@H](NC(=O)CCCO[C@H]5CC[C@H](OCCNC(=O)[C@H]6CC(=O)N(C)[C@@H]6c6cccnc6)CC5)CC4)c(C(F)(F)F)cc3C2)(C(C)C)C1` [Example 12, (2S,3S)-N-(2-(((1R,4S)-4-(4-(((1r,4R)-4-((4-(6-((1S,3R)-1-Isopropyl-3-(((3S,4S)-3-methoxytetrahydro-2H-pyran-4-yl)amino)cyclopentane-1-carbonyl)-3(trifluoromethyl)-5,6,7,8-tetrahydro-1,6-naphthyridin-2-yl)butyl)carbamoyl)cyclohexyl)amino)-4oxobutoxy)cyclohexyl)oxy)ethyl)-1-methyl-5-oxo-2-(pyridin-3-yl)pyrrolidine-3 carboxamide], in that order: 33.3 ng/mL, 631 pM and 95.4%.
